Experimental findings from the supplement of paper PMC10307832 are described below.

What all share (test): relative viability (nuclei count vs DMSO), 5 days (fraction); higher = more cells survive
Compound in the assay “Sulindac + Tozasertib”: CC1=C(CC(=O)O)c2cc(F)ccc2/C1=C\c1ccc([S+](C)[O-])cc1 [Sulindac] + Cc1cc(Nc2cc(N3CCN(C)CC3)nc(Sc3ccc(NC(=O)C4CC4)cc3)n2)n[nH]1 [Tozasertib] (partner 0.1 µM)
The gist of the method: (§1)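 Relative viability divides the nuclei count in treated wells by that in vehicle wells. Lung cancer cell lines were seeded in 1536-well plates, dosed by pin tool the next day, and fixed and stained after 5 days in one step with final 0.05% Triton X-100, 1% formaldehyde and 1 ug/ml Hoechst. Dosing was a single drug or a fixed anchor-drug dose plus five library-drug doses (not always all listed) in √10 steps, and values are medians of duplicate plates imaged at 4×.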

Compound in the assay “Sulindac + Vorinostat”: CC1=C(CC(=O)O)c2cc(F)ccc2/C1=C\c1ccc([S+](C)[O-])cc1 [Sulindac] + O=C(CCCCCCC(=O)Nc1ccccc1)NO [Vorinostat] (partner 1 µM)
Put shortly:
as §1

Compound in assay [1]: CN[C@@H]1C[C@H]2O[C@@](C)([C@@H]1OC)n1c3ccccc3c3c4c(c5c6ccccc6n2c5c31)C(=O)NC4 [Staurosporine] + C[C@]1(O)C[C@@H](c2nc(-c3ccc4ccc(-c5ccccc5)nc4c3)c3c(N)nccn32)C1 [Linsitinib] (partner 1 µM)
Put shortly:
as §1

Compound in assay [2]: O=c1[nH]cc(F)c(=O)[nH]1 [5-Fluorouracil] + N=C(N)NC(=N)NCCc1ccccc1 [Phenformin] (partner 250 µM)
The gist of the method: as §1

Take CAL-12T: the relative viability with Sulindac + Tozasertib (first compound 0.08 µM) stood at 0.253; with Sulindac + Tozasertib (first compound 0.253 µM), 0.282; with Sulindac + Tozasertib (first compound 0.8 µM), 0.322; with Sulindac + Tozasertib (first compound 2.53 µM), 0.301; in the assay with Sulindac + Tozasertib (first compound 8 µM), 0.365; with Sulindac + Vorinostat (first compound 0.08 µM), 0.783. Further, the relative viability in the assay with Sulindac + Vorinostat (first compound 0.253 µM) amounted to 0.858; in the assay with Sulindac + Vorinostat (first compound 0.8 µM), 0.671; with Sulindac + Vorinostat (first compound 2.53 µM), 0.821; with Sulindac + Vorinostat (first compound 8 µM), 1.07; in assay [1] (first compound 0.005 µM), 0.57; in assay [1] (first compound 0.01581 µM), 0.334. The relative viability in assay [1] (first compound 0.05 µM) amounted to 0.213; in assay [1] (first compound 0.1581 µM), 0.136; in assay [1] (first compound 0.5 µM), 0.115; in assay [2] (first compound 0.02 µM), 0.616; in assay [2] (first compound 0.2 µM), 0.614; in assay [2] (first compound 0.6325 µM), 0.37. The relative viability in assay [2] (first compound 2 µM) turned out to be 0.425.

In the case of COR-L23, the relative viability in the assay with Sulindac + Tozasertib (first compound 0.08 µM) stood at 0.591; with Sulindac + Tozasertib (first compound 0.253 µM), 0.242; with Sulindac + Tozasertib (first compound 0.8 µM) it was 0.179; with Sulindac + Tozasertib (first compound 2.53 µM) it was 0.186; in the assay with Sulindac + Tozasertib (first compound 8 µM), 0.238; with Sulindac + Vorinostat (first compound 0.08 µM), 0.453. In addition, the relative viability with Sulindac + Vorinostat (first compound 0.253 µM) was determined as 0.471; with Sulindac + Vorinostat (first compound 0.8 µM), 0.399; with Sulindac + Vorinostat (first compound 2.53 µM) it was 0.499; in the assay with Sulindac + Vorinostat (first compound 8 µM), 0.561; in assay [1] (first compound 0.005 µM), 0.534; in assay [1] (first compound 0.01581 µM) it was 0.27. For the same cell line, the relative viability came out at 0.134 in assay [1] (first compound 0.05 µM); 0.0552 in assay [1] (first compound 0.1581 µM); 0.041 in assay [1] (first compound 0.5 µM); 0.4 in assay [2] (first compound 0.02 µM); 0.427 in assay [2] (first compound 0.2 µM); 0.278 in assay [2] (first compound 0.6325 µM). Moreover, the relative viability in assay [2] (first compound 2 µM) worked out at 0.228.

For COR-L 105, the relative viability with Sulindac + Tozasertib (first compound 0.08 µM) was found to be 0.291; with Sulindac + Tozasertib (first compound 0.253 µM), 0.349; in the assay with Sulindac + Tozasertib (first compound 0.8 µM) it was 0.348; with Sulindac + Tozasertib (first compound 2.53 µM), 0.373; with Sulindac + Tozasertib (first compound 8 µM), 0.391; with Sulindac + Vorinostat (first compound 0.08 µM) it was 0.95. Further, the relative viability in the assay with Sulindac + Vorinostat (first compound 0.253 µM) came to 0.982; with Sulindac + Vorinostat (first compound 0.8 µM) it was 0.856; with Sulindac + Vorinostat (first compound 2.53 µM), 0.77; in the assay with Sulindac + Vorinostat (first compound 8 µM), 0.967; in assay [1] (first compound 0.005 µM), 0.561; in assay [1] (first compound 0.01581 µM) it was 0.353. Also, the relative viability worked out at 0.246 in assay [1] (first compound 0.05 µM); 0.261 in assay [1] (first compound 0.1581 µM); 0.213 in assay [1] (first compound 0.5 µM); 0.452 in assay [2] (first compound 0.02 µM); 0.495 in assay [2] (first compound 0.2 µM); 0.45 in assay [2] (first compound 0.6325 µM). In assay [2] (first compound 2 µM), the relative viability was 0.337.

With Calu-6, the relative viability in assay [1] (first compound 0.005 µM) stood at 0.92; in assay [1] (first compound 0.01581 µM), 0.776; in assay [1] (first compound 0.05 µM), 0.3; in assay [1] (first compound 0.1581 µM), 0.0858; in assay [1] (first compound 0.5 µM) it was 0.0592.

As for ChaGo-K-1, the relative viability is 0.228 in the assay with Sulindac + Tozasertib (first compound 0.08 µM); 0.197 with Sulindac + Tozasertib (first compound 0.253 µM); 0.24 in the assay with Sulindac + Tozasertib (first compound 0.8 µM); 0.217 in the assay with Sulindac + Tozasertib (first compound 2.53 µM); 0.241 in the assay with Sulindac + Tozasertib (first compound 8 µM); 0.874 with Sulindac + Vorinostat (first compound 0.08 µM). Besides, the relative viability is 0.822 in the assay with Sulindac + Vorinostat (first compound 0.253 µM); 0.575 with Sulindac + Vorinostat (first compound 0.8 µM); 0.755 in the assay with Sulindac + Vorinostat (first compound 2.53 µM); 0.907 with Sulindac + Vorinostat (first compound 8 µM); 0.526 in assay [2] (first compound 0.02 µM); 0.476 in assay [2] (first compound 0.2 µM). In addition, the relative viability in assay [2] (first compound 0.6325 µM) is 0.433; in assay [2] (first compound 2 µM), 0.348.
